These results are taken from paper PMC8277133, “Os(II)-Bridged Polyarginine Conjugates: The Additive Effects of Peptides in Promoting or Preventing Permeation in Cells and Multicellular Tumor Spheroids” (Inorganic Chemistry, 2021).

Where a SMILES comes first, the peptide text is derived from it. [ ]: non-standard residue; d: D form. The star is where a group is joined. X1 = O=C(c1ccc(-c2cc(-c3ccccn3)nc(-c3ccccn3)c2)cc1)*; Ahx = NCCCCCC(=O)O

Data set [1] concerns HPAC spheroids. As to the kind of experiment: Confocal imaging of penetration into live HPAC multicellular tumor spheroids. The note with it: for Spheroid penetration / accumulation: 100 μM, 48 h, confocal microscopy, no permeant. The format is cell-based, human. As for the experimental part:
The human pancreatic cancer cell line (HPAC) was cultured in Gibco Roswell Park Memorial Institute medium supplemented with 5% FBS at 37 °C with 5% CO2. HPAC cells were seeded at 2.5 × 10^3 cells/well of 96-well round-bottom plates pre-coated with poly-Hema (poly-2-hydroxyethyl methacrylate, Sigma). Cells were allowed to be compact and form 3D spheroid structures after 72 h.
Spheroids were treated with [Os-(R4)2]^10+ at 30 μM for 24 h and 100 μM for 24 and 48 h. Control spheroids were treated with the parent complex [Os(tpybenzCOOH)2]^2+ and [Os-(R8)2]^18+ at 100 μM for 48 h. Non-treated spheroids were also prepared as a negative control. Spheroids were co-stained with DAPI at 10 μM for 90 min. Each spheroid was collected individually and embedded in collagen in eight-well chamber slides, incubated for 90 min, and observed under confocal microscopy.
For imaging, HPAC spheroids were plated in collagen-treated eight-well chamber slides. HPAC spheroids were directly imaged from the eight-well chamber using a Leica TSP DMi8 confocal microscope (10× dry and 40× oil immersion objective). Z-scanning was used to acquire images across the z-axis of the spheroid sample. On average, 45–50 images were acquired at approximately 5 μm apart. 3D Z-stack images were used for spheroid reconstructions and 2D projection images are also reported. The Os(II) parent complex and bioconjugates were excited using a 490 nm white light laser, and the emission range was set to be between 650 and 800 nm (a false red color was used for the Os(II) channel). DAPI was excited at 405 nm, and emission was collected between 423 and 580 nm.

For data set [2], the system named is A549 cells. As to the kind of experiment: Confocal laser scanning microscopy uptake study in live A549 cells. The format is cell-based. The note with it: CLSM; for Cellular uptake / membrane permeation: live A549 cells, 24 h, 37 °C. As for the experimental part:
(§1) Two cell lines were studied: an adherent mammalian cell line, Chinese hamster ovarian (CHO–K1), and a lung carcinoma cancer cell line (A549). Dulbecco’s modified Eagle’s medium (DMEM)/Hams F-12 was used for CHO cells and DMEM for A549 cells. Both media were supplemented with 10% FBS and 1% penicillin–streptomycin. The cells were grown at 37 °C with 5% CO2 and sub-cultured at 90% confluency.
(§2) Uptake studies were carried out for A549 and CHO cell lines. Cells were seeded at 1.5 × 10^5 cells in 35 mm glass-bottom culture dishes (Ibidi, Germany). Cells were allowed to grow for 24 h at 37 °C with 5% CO2. […] The dye/media solution was removed, and cells were washed twice with supplemented phosphate-buffered saline (PBS, 1.1 mM MgCl2 and 0.9 mM CaCl2). Cells were directly imaged using a Leica TSP DMi8 confocal microscope (63× oil immersion objective lens unless stated otherwise) with a heated stage at 37 °C.
(§3) [Os-(Rn)2]^x+ (n = 4 and 8; x = 10^+ and 18^+) was excited using a 490 nm white light laser, and the emission range was set to be between 650 and 800 nm. DRAQ7, a nuclear staining dye, was added (3 μM) to distinguish intact live cells from permeabilized/dead cells. The 633 nm laser was used to excite DRAQ7, and emission was collected between 635 and 750 nm. For co-localization studies, MitoTracker Deep Red (100 nM) and LysoTracker Green (50 nM) were used to selectively stain mitochondria and lysosomes, respectively. MitoTracker Deep Red was excited at 644 nm and emission was collected between 655 and 720 nm, and LysoTracker Green was excited at 504 nm and emission was collected at 511 nm.

The subject of data set [3] is CHO cells. As to the kind of experiment: Confocal laser scanning microscopy uptake study in live CHO cells. The format is cell-based, Chinese hamster. The note with it: CLSM; for Cellular uptake / membrane permeation: live CHO cells, 24 h, 37 °C. As for the experimental part: as §1, §2, §3
A further data set relates to cell membrane. Conditions: parent complex without peptide; as reported previously; cited from earlier work. As for the experimental part: Uptake of the Os(II) bis-octaarginine conjugate was studied in live A549 lung carcinoma and a non-cancerous CHO cell line. […] The conjugate remained as impermeable to the cell membrane as the parent Os(II) complex at 30 μM/24 h and 100 μM/24 h (Figure S12).

Data set [4] deals with HPAC spheroids. As to the kind of experiment: 3D spheroid viability, Alamar Blue. Format: cell-based, human. Conditions: 100 μM, 24 and 48 h, relative to untreated controls, n=2. As for the experimental part: The 3D spheroid viability was evaluated using Alamar Blue. Briefly, 2.5 × 10^3 cells were seeded in each well of a 96-well round-bottom plate pre-coated with poly-Hema. The cells were allowed to grow and form spheroids for 72 h. The spheroids were then treated with [Os-(R4)2]^10+ at 100 μM for 24 and 48 h. The Alamar Blue reagent at a concentration of 10% was added to each well and incubated for 5 h at 37 °C. Fluorescence was measured at 535/590 excitation/emission wavelengths on a plate reader (Biotek) using Gen4 software. Background fluorescence was measured by using a blank consisting of medium only. Percentage viability was calculated relative to untreated controls.

For data set [5], the system named is A549 cells. In words: Phototoxicity under continuous 490 nm irradiation with DRAQ7. Format: cell-based. Conditions: A549 cells pretreated 30 μM/24 h, DRAQ7, continuous 490 nm irradiation 0.84 μW/cm^2, 3 h. As for the experimental part: DRAQ7 was added to live A549 cells treated with [Os-(R4)2]^10+ (30 μM/24 h). A group of cells were selected for continuous irradiation using 490 nm excitation (0.84 μW/cm^2). Emission was collected between 650 and 800 nm for [Os-(R4)2]^10+. The 633 nm laser was used to excite DRAQ7, and emission was collected between 635 and 750 nm. This was repeated for an untreated control sample exposed to continuous irradiation and stained with DRAQ7.

The subject of data set [6] is CHO cells. In words: DRAQ7 co-staining for damaged/dead cells, CHO. The note with it: 30 μM, 24 h. The format is cell-based, Chinese hamster. Here is the method:
(§4) Uptake studies were carried out for A549 and CHO cell lines. Cells were seeded at 1.5 × 10^5 cells in 35 mm glass-bottom culture dishes (Ibidi, Germany). Cells were allowed to grow for 24 h at 37 °C with 5% CO2. The growth medium was removed, and a specific concentration of [Os-(Rn)2]^x+ (n = 4 and 8; x = 10^+ and 18^+) was added and allowed to incubate for 24 and 48 h at 37 °C with 5% CO2 in the dark. The dye/media solution was removed, and cells were washed twice with supplemented phosphate-buffered saline (PBS, 1.1 mM MgCl2 and 0.9 mM CaCl2). Cells were directly imaged using a Leica TSP DMi8 confocal microscope (63× oil immersion objective lens unless stated otherwise) with a heated stage at 37 °C.
as §3

Data set [7] relates to A549 cells. In words: DRAQ7 co-staining for damaged/dead cells, A549. The format is cell-based. As for the experimental part:
as §4, §3

Turning to `O=C(O)c1ccc(-c2cc(-c3ccccn3)nc(-c3ccccn3)c2)cc1.O=C(O)c1ccc(-c2cc(-c3ccccn3)nc(-c3ccccn3)c2)cc1.[Os+2]` [[Os(tpybenzCOOH)2]^2+, Os(II) [bis-(4′-(4-carboxyphenyl)-2,2′:6′,2″-terpyridine)]], the “Spheroid penetration / accumulation” value in the data set with HPAC spheroids [1] was “no spheroid penetration or accumulation was observed”. Also, the “Cellular uptake / membrane permeation” value in the data set with A549 cells [2] (100 μM) and with CHO cells [3] (100 μM) was “completely impermeable” each time. The Cell membrane permeability result in the data set with cell membrane is given as “cell membrane impermeable”.
`N=C(N)NCCC[C@@H](NC(=O)[C@@H](CCCNC(=N)N)NC(=O)[C@@H](CCCNC(=N)N)NC(=O)[C@@H](CCCNC(=N)N)NC(=O)CCCCCNC(=O)c1ccc(-c2cc(-c3ccccn3)nc(-c3ccccn3)c2)cc1)C(N)=O` [[Os-(R4)2]^10+] ({X1-Ahx}-[dR][dR][dR][dR]-NH2): the Spheroid viability entry in the data set on HPAC spheroids [4] is “no evidence of toxicity”. Besides, the “Staining at the center of the spheroid, at 72 ± 5 μm” value in the data set on HPAC spheroids [1] (30 μM/24 h) is recorded as “not observed”. In addition, the Spheroid penetration result with HPAC spheroids [1] (30 μM/24 h, 3D reconstruction depth coding) is “spheroid penetration was evident”; in the data set on HPAC spheroids [1] (100 μM/24 h), “extensive probe penetration and distribution to the core of the spheroid”. The “Spheroid penetration / accumulation” value in the data set with HPAC spheroids [1] was “throughout cell layers and deep into the spheroid core”. Also, in the data set with A549 cells [5], the Photo-induced toxicity result was “non-photocytotoxic”. Also, the “Cellular damage by DRAQ7 co-staining” value in the data set with CHO cells [6] was “entry of DRAQ7 (blue) in several cell nuclei”. For the same molecule, in the data set on A549 cells [2] (A549 cells, 4 °C, 30 μM/24 h), the “Cell permeation at 4 °C” value is “inhibited”. Also, the “Cellular uptake / membrane permeation” value was “rapidly and efficiently internalized” in the data set with A549 cells [2] (30 μM, dark, exc 490 nm, em 650-800 nm); “rapidly and efficiently internalized” with CHO cells [3] (30 μM, dark). The Cell permeation entry with CHO cells [3] (CHO cells, 30 μM/24 h) is on record as “inhibited”. In the data set with A549 cells [7] (30 μM, 24 h and 48 h), the “Cell viability by DRAQ7 co-staining” value is given as “remained viable”. The “Cytotoxicity by DRAQ7 co-staining” value in the data set on A549 cells [7] (100 μM, 48 h) is listed as “modest cytotoxic effects”. For the same molecule, the “Cell death by DRAQ7 co-staining” value in the data set with A549 cells [7] (100 μM/24 h) is on record as “no cell death was induced”.
